Measured values taken from US9988370B2, “Benzisoxazole derivative salt” (RaQualia Pharma Inc., priority 2014, dated 2018).

How the values were obtained:
[1] = Hygroscopicity study (storage at 90% RH, weighing and PXRD after five days); format: physicochemical; details: for PXRD (compared to intact bulk) / PXRD - overnight at ambient condition: after five days at 90% RH; for PXRD - overnight at ambient condition: then equilibrated at ambient temperature overnight; for Water uptake after 5 days: humidity chamber at 90% RH (BaCl2-2H2O), five days
Procedure: The salt samples are weighed into aluminum crucibles, placed onto a sample holder, and stored in the humidity chamber at 90% RH (BaCl2-2H2O). The samples are visually inspected with a hand magnifying lens and weighed on an analytical balance after five days. The samples are analyzed by PXRD after five days, then allowed to equilibrate at ambient temperatures overnight and re-analyzed by PXRD to evaluate stability of suspected hydrates under ambient conditions.

[2] = Solid-state stability study under 40° C./75% RH (HPLC remaining % and purity); format: physicochemical; details: 40° C./75% RH for 6 month; for Purity (Area %) Main peak: counterion area excluded
Procedure: HPLC data are obtained by Waters Alliance 2695 HPLC system with 2996 PDA detector using the following conditions; • Column: Inertsil ODS-3 (3 microm, 4.6×150 mm), • Eluent: acetonitrile/10 mM ammonium acetate=32/68, • Detection: UV at 215 nm, • Flow rate: 1 mL/min, and • Column temperature: 40° C.
Solid-state stability study is performed using Nagano Science Constant temperature/humidity control chamber LH-20-11M or LH-21-11M. The sample is placed in the chamber and exposed under 40° C./75% RH. The crystalline form and thermal behavior of the resultant sample after the exposure are evaluated by PXRD and TG/DTA, respectively. The remaining % and the purity are determined by HPLC measurement.

| Compound | PXRD (compared to intact bulk) [1] | PXRD - overnight at ambient condition [1] | Assay Remaining % [2] | Purity (Area %) Main peak [2] | Water uptake after 5 days [1] |
| --- | --- | --- | --- | --- | --- |
| 4-{[4-({[4-(2,2,2-trifluoroethoxy)-1,2-benzisoxazol-3-yl]oxy}methyl)piperidin-1-yl]methyl}tetrahydro-2H-pyran-4-carboxylic acid hemi-ethanedisulfonate salt [EDSA-salt] | same | no change | 99% | 100.0 Area % | – |
| O=C(O)C1(CN2CCC(COc3noc4cccc(OCC(F)(F)F)c34)CC2)CCOCC1 [Free form, 4-{[4-({[4-(2,2,2-trifluoroethoxy)-1,2-benzisoxazol-3-yl]oxy}methyl)piperidin-1-yl]methyl}tetrahydro-2H-pyran-4-carboxylic acid] | different from the intact bulk | no change | 87% | 95.6 Area % | 16.7 wt % |
| Br.O=C(O)C1(CN2CCC(COc3noc4cccc(OCC(F)(F)F)c34)CC2)CCOCC1 [HBr-salt, 4-{[4-({[4-(2,2,2-trifluoroethoxy)-1,2-benzisoxazol-3-yl]oxy}methyl)piperidin-1-yl]methyl}tetrahydro-2H-pyran-4-carboxylic acid hydrobromide salt] | same | no change | 99% | 99.9 Area % | – |
| Cl.O=C(O)C1(CN2CCC(COc3noc4cccc(OCC(F)(F)F)c34)CC2)CCOCC1 [HCl-salt, 4-{[4-({[4-(2,2,2-trifluoroethoxy)-1,2-benzisoxazol-3-yl]oxy}methyl)piperidin-1-yl]methyl}tetrahydro-2H-pyran-4-carboxylic acid hydrochloride salt] | same | no change | 97% | 98.8 Area % | – |
| Cc1ccc(S(=O)(=O)O)cc1.O=C(O)C1(CN2CCC(COc3noc4cccc(OCC(F)(F)F)c34)CC2)CCOCC1 [pTSA-salt, 4-{[4-({[4-(2,2,2-trifluoroethoxy)-1,2-benzisoxazol-3-yl]oxy}methyl)piperidin-1-yl]methyl}tetrahydro-2H-pyran-4-carboxylic acid p-toluenesulfonate salt] | same | no change | 98% | 99.7 Area % | – |
| O=C([O-])C1(CN2CCC(COc3noc4cccc(OCC(F)(F)F)c34)CC2)CCOCC1.[Na+] [sodium salt, 4-{[4-({[4-(2,2,2-trifluoroethoxy)-1,2-benzisoxazol-3-yl]oxy}methyl)piperidin-1-yl]methyl}tetrahydro-2H-pyran-4-carboxylic acid sodium salt] | – | – | – | – | more than 40 wt % |
